Experimental data published in patent publication US7351744B2, “Naphthalene derivatives as termite repellents and toxicants” (Board of Supervisors of Louisiana State University and …, priority 2003, dated 2008).

Key:
C. formosanus workers [1] = test: Repellency, choice of treated and untreated filter paper in three-chambered containers; type: in vivo, Coptotermes formosanus; conditions: for concentration of strong repellency and significant reduction in feeding activity: alternative food choice, 15 days
From the text: Thirty-five transparent plastic containers (17.7 cm×8.0 cm×4.0 cm), Pioneer Packaging Co., North Dixon, Ky.), each with three chambers (8.0 cm×5.75 cm×4.0 cm), were used. An opening (3.5 cm×0.3 cm) was made at the bottom of each of the two inner walls, connecting the three chambers and allowing termites to move between the chambers. For each container, filter papers (Whatman #2, 5.5 cm diameter) were placed in the two lateral side chambers. For each treatment, five replicates (five containers) were used; for each replicate, one side chamber was marked “treated” and the other side chamber marked “untreated.”
A stock solution of 2′-acetonaphthone was prepared by dissolving 0.952 mg (AI) in 5 ml ethanol (190.4 mg/l). One-half of this solution was used to apply 500 μl to filter paper placed in the “treated” chamber to test the highest concentration of 2′-acetonaphthone, 4.0 μg/cm^2. The remaining volume, 2.5 ml, was diluted by adding an equal volume of ethanol. One-half of this new solution was used to add 500 μl to each of 5 filter papers in a “treated” chamber to achieve a concentration of 2.0 μg/cm^2. This dilution and application step was repeated four more times to make four additional concentrations equivalent to 1.0, 0.50, 0.250 and 0.125 μg/cm^2. Filter papers placed in the “untreated” chambers were left untreated. Five containers served as replicates for each tested concentration. Five containers served as controls, in which filter paper in the “treated” chamber received 500 μl ethanol, and that in the “untreated” chamber was left untreated.
Containers were kept at ambient conditons overnight for ethanol evaporation, and then all filter papers were weighed. In the middle chamber of all containers, 55 g wetted sand (50 g sand mixed with 5 ml DDH2O) was added, then packed and leveled to allow for clear visualization of tunnels along the bottom of the containers. Treated and untreated filter papers were wetted with 250 μl DDH2O. Then 100 workers and 5 soldiers from colony E were released onto the surface of the sand in the middle chamber.
The containers were covered and incubated for 12 days at 26.6° C. and 70% RH, and checked every 2 days for moisture content. The number of termites in the two lateral chambers was recorded daily for 3 days. On day 12, the bottom of each container was scanned (ScanJet 4c, Hewlett-Packard, Palo Alto, Calif.) and the images printed to measure and calculate the areas of tunnels. The experiment was ended on day 12, and the number of living termites in each container counted. The treated and untreated filter papers were gently cleaned using deionized water and a small brush to remove all debris. Filter papers were then oven dried at 60° C. for 3 h, and re-weighed to calculate food consumption.
A second trial was conducted with higher concentrations of 2′-acetonaphthone (5 to 40 μ/cm^2) using the above technique with some modifications. A stock solution (1900 mg/l) was prepared by dissolving 0.038 g (AI) 2′-acetonaphthone in 20 ml ethanol. Dilutions were made by taking 6.0, 4.5, 3.0, 1.5, and 0.75 ml from the original stock, and adjusting the volume of each to 6.0 ml with ethanol to yield the following concentrations: 1900.0, 1425.0, 950.0, 475.0, 237.5 mg/l, respectively. For each concentration, ten containers were used, with the filter paper in the “treated” chamber coated with 500 μl of the tested concentration. Filter papers placed in the “untreated” chamber were left untreated. For controls, ten containers were similarly handled except that the filter paper in the “treated” chamber was coated with 500 μl ethanol. The solvent was allowed to evaporate overnight at ambient conditions. The final concentrations of 2′-acetonaphthone on the filter papers were 5, 10, 20, 30, and 40 μg/cm^2.
The ten containers for each concentration were equally divided into two equal sub-groups. […]

C. formosanus workers [2] = test: Treated sand when untreated sand is an alternative; type: in vivo, Coptotermes formosanus; conditions: for Survival (mean % ± SE) day 12: Colony WB; for Survival (mean % ± SE) day 12 / Survival (% ± SE) day 12: treated and untreated sand; for Survival (% ± SE) day 12: Colony E
Procedure: To further test the repellency of 2′-acetonaphthone, the three-chambered transparent plastic containers described in Example 5 were used. Sand was treated, allowed to dry from the solvent, and wetted with DDH2O as described in Example 5. Treated sand was placed in one of the side chambers, and the other side chamber received an equal amount of untreated sand. The concentrations of 2′-acetonaphthone used were 4.16, 8.33, 16.67, 33.33 and 66.67 mg/kg sand. Each concentration and the control had five replicate containers. Weighed balsa wood slices (0.159 cm×3.5 cm×6.0 cm each) were placed on the surface of both treated and untreated sand, and were wetted with 1 ml of DDH2O. Termites (200 workers and 20 soldiers) from colony WB were released in the middle chamber. On days 2, 3, 4 and 7, the bottom of each container was scanned, and tunnel areas measured as above. On day 12, the number of living termites in each container was recorded. The wood slices were then cleaned, dried and re-weighed to calculate food consumption.
The above experiment was repeated with new concentrations of 2′-acetonaphthone: 8.75, 17.5, 35, 70 and 140 mg/kg sand. Termites from colony E were tested, and the food source was changed to filter paper. Tunnels were scanned and measured on days 2, 5, 8 and 12. The data were analyzed as described in Example 5, and paired t-tests were used to compare tunneling and feeding activities between treated and untreated sides.

With `CC(=O)c1ccc2ccccc2c1` [2′-acetonaphthone] the “concentration of strong repellency and significant reduction in feeding activity” value (C. formosanus workers [1]) was at least 20 μg/cm^2, the “concentration of strong repellency and significant reduction in feeding activity” value (C. formosanus workers [1]; listed as 2′-Acetonaphthone) was at least 20.0 μg/cm^2 and the “concentration of strong repellency and significant reduction in feeding activity” value (C. formosanus workers [1]; listed as 2′-aceetonaphthone) was at least 20.0 μg/cm^2. For the same compound, the “concentration of strong repellency and significant reduction in feeding activity” value (C. formosanus workers [1]; listed as 2′-acetonapththone) was at least 20 μg/cm^2, the “Survival rates after 15 days exposure” value (C. formosanus workers [1]; concentrations ≧20 μg/cm^2, control 63.0%, difference not significant) was 45.0-51.2% and the “concentration with significant differences in termite distribution between the chambers” value (C. formosanus workers [1]; day 8) was at least 5.0 μg/cm^2. For the same compound, the “concentration at which repellent” value (C. formosanus workers [1]; untreated food source available) was 5 μg/cm^2 filter paper, the “concentration with significantly more termites in the untreated chamber than in the treated chamber” value (C. formosanus workers [1]; within the first 3 days) was at least 10.0 μg/cm^2 and the “Survival (mean % ± SE) day 12” value (C. formosanus workers [2]; 4.16 mg/kg) was 48.75 ± 2.78 ab %. For the same compound, the “Survival (mean % ± SE) day 12” value (C. formosanus workers [2]; 8.33 mg/kg) was 36.00 ± 4.76 bc %, the “Survival (% ± SE) day 12” value (C. formosanus workers [2]; 8.75 mg/kg) was 61.60 ± 2.79 abc % and the “Survival (mean % ± SE) day 12” value (C. formosanus workers [2]; 16.67 mg/kg) was 35.25 ± 3.47 bc %. For the same compound, the “Survival (% ± SE) day 12” value (C. formosanus workers [2]; 17.5 mg/kg) was 67.20 ± 1.36 ab %, the “Survival (mean % ± SE) day 12” value (C. formosanus workers [2]; 33.33 mg/kg) was 17.33 ± 7.22 c % and the “Survival (% ± SE) day 12” value (C. formosanus workers [2]; 35.0 mg/kg) was 59.0 ± 7.72 bc %. The “Survival (mean % ± SE) day 12” value (C. formosanus workers [2]; 66.67 mg/kg) was 24.25 ± 11.99 c %, the “Survival (% ± SE) day 12” value (C. formosanus workers [2]; 70.0 mg/kg) was 53.0 ± 2.34 c % and the “Survival (% ± SE) day 12” value (C. formosanus workers [2]; 140.0 mg/kg) was 51.60 ± 3.97 c %. The “concentration with significantly reduced survival after 12 days” value (C. formosanus workers [2]; colony E) was at least 35.0 mg/kg sand, the “concentration significantly reducing overall tunneling (treated plus untreated sand)” value (C. formosanus workers [2]; colony E, 12 days) was at least 35.0 mg/kg and the “concentration with significant reduction in consumption of filter paper on treated sand” value (C. formosanus workers [2]; colony E, 12 days) was at least 8.75 mg/kg. For the same compound, the “concentration with significantly less total food consumption” value (C. formosanus workers [2]; colony E, only this treatment) was 140 mg/kg, the “concentration with significant reduction in tunneling activity in treated sand” value (C. formosanus workers [2]; colony E, up to 12 days) was at least 17.5 mg/kg and the “concentration with significantly reduced survival on day 12” value (C. formosanus workers [2]; colony WB) was at least 8.33 mg/kg. The “concentration with significantly reduced consumption of wood slices on treated sand” value (C. formosanus workers [2]; colony WB, 12 days) was at least 8.33 mg/kg and the “concentration with significant difference in tunneling activity between untreated and treated sand” value (C. formosanus workers [2]; colony WB, days 2, 3, 4, 7) was at least 16.67 mg/kg sand.
